Source: US20250236892A1, “Inhibition of NHEJ, MMEJ, and 53BP1 Promotes High Levels of HDR” (Integrated DNA Technologies, Inc., priority 2024, published 2025)

What was measured:
[1] = system: HEK293 cells; assay: CAR knock-in at the TRAC locus with dsDNA Alt-R HDR donor block, PCR and Fragment Analyzer; type: cell-based; conditions: enhancer used alone; ART558 10 μM, V2 1 μM, Ubv-A protein 25 μM, Ubv-A mRNA 25 nM; Cas9 RNP or Cas9 mRNA
Protocol: FIG. 3A depicts percent CAR knock-in (KI) at the TRAC locus in HEK293 cells treated with 1 μg dsDNA Alt-R HDR donor block, 2 μM Cas9 RNP, and either 25 μM tagless Ubv-A protein or 25 nM Ubv-A mRNA or no Ubv-A and incubated in media containing DMSO (no enhancer), MMEJ inhibitor ART558 (ART, 10 μM), NHEJ inhibitor Alt-R HDR enhancer V2 (V2, 1 μM), or both ART558 and V2. Percent KI was calculated using PCR followed by analysis using an Agilent Fragment Analyzer and data processing using PROSize 3.0 software to calculate the relative molar concentrations between wild-type and edited products. Error bars indicate SD, n=3. […]
HEK293 cells were harvested and resuspended in SF Cell Line Nucleofector Solution (Lonza, V4SC-2096) at a concentration of approximately 16,500 cells/μl and 18 μl of this cell suspension was used for each nucleofection. […] To quantify knock-in percentages, genomic DNA flanking the sgRNA target site was amplified by PCR, PCR products were separated on a Fragment Analyzer (Agilent Technologies), and the percentage of edited and unedited alleles was calculated using PROSize 3.0 software.
Recent publications have shown that inhibition of MMEJ through inhibition of DNA polymerase theta using small molecule inhibitors increases the rate of HDR and reduces undesired edits^16,27. […] Genomic DNA was isolated approximately 48 hours after delivery and editing was analyzed by NGS. […]

[2] = system: HEK293 cells; assay: HDR insertion of a 6-nt EcoRI sequence at SpCas9 RNP induced DSBs with ssDNA donor, repair events measured by NGS; type: cell-based
Protocol: FIG. 1 depicts inhibition of NHEJ, MMEJ, and 53BP1 leads to high levels of HDR at SpCas9 induced DSBs. HEK293 cells were treated with Cas9 RNP (2 μM) targeting 5 different sites (FIG. 1A: AADACL3; FIG. 1B: ANKRD50; FIG. 1C: ABCD4: FIG. 1D: AR; FIG. 1E: AKAP6) in the genome alongside ssDNA donor template with or without Ubv-A protein (25 μM). Cells were then plated in media containing no DMSO, DMSO control, ART, V2, or ART+V2 for 24 hours before exchanging for fresh media (see Methods for concentrations). The graphs show the percent of each repair event under each condition measured by NGS with error bars indicating SD from three replicates. Likely MMEJ deletions are determined based on the presence of microhomology of two nucleotides or greater at the ends of the deletion.
For HDR using ssDNA templates in HEK293 cells genome editing was mediated via IDT Alt-R Cas9 ribonucleoprotein, IDT Alt-R AsCas12a Ultra, or EURECA-V (a ErCas12a variant) (RNP) complexes delivered by Lonza nucleofection in concert with single-stranded oligodeoxynucleotide (ssODN) HDR repair templates. The specific repair event was the insertion of a 6-nt EcoRI sequence (5′-GAATTC-3′) at either the Cas9, AsCas12a, or ErCas12a cut site. The sgRNAs for Cas9 and crRNAs for AsCas12a corresponding to the protospacer sequences listed in Table 2 were ordered from IDT (Table 2). The HDR donor templates for Cas9 editing contain 40-nt homology arms (HA) flanking a 6 nt EcoR1 cut site insert. The HDR donor templates for AsCas12a were similar except for slightly different homology arm lengths (40 nt 5′ HA and 45 nt 3′ HA)^66. The HDR donor sequences listed in Table 3 were ordered from IDT as Alt-R HDR donor oligos (Table 3). The repair templates are homologous to the non-targeting strand of dsDNA, where targeting/non-targeting is defined with respect to the guide RNA sequence and the presence of the NGG/TTTV PAM sequence identifying the non-target strand. […]

With `Cc1cccc(N(C)C(=O)[C@@H]2[C@H](O)CCN2c2nc(C)cc(C(F)(F)F)c2C#N)c1` [ART558, reference compound] the “HDR (CAR knock-in)” value [1] was “minimal effect on HDR”, the HDR ([2]; 10 μM ART558 alone in media 24 hours, 2 μM Cas9 RNP, 2 μM ssDNA, 5 sites) was “minimal boost in HDR” and the “HDR, site with largest increase” value ([2]; 10 μM ART558 alone, AKAP6 site, highest level of likely MMEJ repair events in media only condition) was “AKAP6”. The “rates of HDR and likely MMEJ events” value ([2]; 10 μM ART558 in combination with 1 μM V2, compared with ART558 plus Ubv-A) was “the effect is less pronounced”.
